This is an account of results in US20200062719A1, “Application of Imidazopyridine Derivatives in Regenerative Medicine” (University of Heidelberg, priority 2018, published 2020).

The structures appear in SMILES notation.

One data set concerns OCT4-promoter. The experiment in a line: Luciferase reporter assay in HEK-OCT4 cells. The conditions noted are these: HEK-OCT4, NCCIT-OCT4 and NCCIT-NANOG. It counts as cell-based. The method, then: In an effort to find such chemical structures able to induce pluripotency, a high-throughput screening (HTS) was performed. The screen was based on cellular luciferase reporter assays under the control of the promoter activity of a pluripotency-associated transcription factor (Oct4) in HEK293 cells.
(§1) The inventors adopted Hantzsch thiazole synthesis (FIG. 20A) and produced a series of new O4I2-ester derivatives (FIG. 20B). Their activities were measured in three luciferase report cell lines, namely HEK-OCT4, driven by the activation of OCT4-promoter, and NCCIT-OCT4 and NCCIT-NANOG, whose intensities are controlled by endogenous OCT4 and NANOG respectively. […] Carboxylesterase 1 (CES1) is an enzyme majorly contributing to ester-to-acid conversion.
For orientation: In a reporter assay the amount or activity of a reporter protein is the signal.

Data set [1] can be described thus: Expression of pluripotency genes in unmodified NCCIT cells. Type of data set: cell-based, human. From the text:
Consistently, in unmodified NCCIT cells O4I4 forced the expression of OCT4 (3-fold increase as compared to 0.1% DMSO treatment) and NANOG (30-fold increase) as well as other pluripotency-related genes, like E-CADHERIN, SOX2, REX1 and STAT3, 0414-mediated enrichment of OCT4 and NANOG, as well as SOX2 and E-CADHERIN, was also detected by fluorescence-activated cell sorting. […] It was reported that removal of bFGF led to the loss of pluripotency-marker expression in hPSCs, including OCT4, SOX2, E-CADHERIN and NANOG, which however was rescued in the presence of O4I4 (FIG. 21A), indicating a positive function of O4I4 in maintaining the pluripotency-associated transcriptional circuitry in hPSC.
Quantitative reverse-transcription real-time-PCR was performed using a Light Cycler 96 (Roche, Germany) following the manufacturer's protocol. Briefly, total RNA was isolated from cells using TRIzol (Qiagen, Germany) or NucleoSpin®RNA Plus (Macherey-Nagel, Germany). The same amount of RNA was used to reverse-transcriptional synthesize cDNA by using random primers ProtoScript® First Strand cDNA Synthesis Kit (NEB, Germany). qPCR was performed using the SYBR Green PCR master mix (qPCRBIO SyGreen Mix Lo-Rox, Nippon Genetics, Germany) and the primer pairs indicated below (MWG, Eurofins, Germany). Actin was used as an endogenous control. […]

The subject of data set [2] is C. elegans. The experiment in a line: C. elegans survival assay under oxidative stress (juglone). Type of data set: in vivo. The method, then:
Eggs were released by lysing gravid adults with bleaching for 10 min. Resuspended eggs in sterile M9 buffer and incubated at 20° C. for 16-18 h. After all the worms were synchronized at the same L1 larval stage, transferred them into the liquid S-media which contents E. coli OP50 (0D600=0.8-1.2). Then, synchronized worms were treated with DMSO, 50 μg/ml epigallocatechin gallate (EGCG) or O4I4 (5 μM, 10 μM, and 20 μM) for further experiments.
After 48 h treatment, around 60 wild-type C. elegans (N2) worms in each sample were transferred into a new liquid S-media which contains 80 μM of superoxide-generating compound juglone (5-hydroxy-1,4-naphthalenedione) for 24 h. If a worm has response via a gentle touch with platinum wire, it is considered as a live worm. Conversely, a dead worm was considered by no response. The function of the survival rate is shown below.

Data set [3] has as its system C. elegans. The experiment in a line: C. elegans lifespan assay. Type of data set: in vivo. To be noted: 0.5 μM. As to the method: O4I4 (0.5 μM) were continuously added in medium until all the worms die. During the experiment period, every two days or three days, worms were counted either live or die by responding to a gentle touch with a platinum wire.
The test system of another data set is daf-16. The experiment in a line: Daf-16 localization assay in C. elegans TJ356. It counts as in vivo. As to the method: In this experiment, transgenic worms TJ356 (Daf-16::GFP) are employed to study our target substance affects the localization of daf-1 6. After 24 h treatment, worms were transferred to a glass slide and paralyzed with 10 mM sodium azide. BZ9000 fluorescence microscope was used to observe the localization of daf-1 6. In each sample, around 50 worms were scored for three localization patterns: cytoplasmic, intermediate and nuclear.

The subject of data set [4] is Oct4. The experiment in a line: Immunoblotting of OCT4 protein in human primary fibroblasts. Type of data set: cell-based. The method, then:
In human primary fibroblasts, O4I4 promoted the expression of pluripotency-associated genes, including OCT4, SOX2, NANOG, LIN28, E-CADHERIN, REX1 and SALL4. […] FACS analysis further confirmed the O4I4-mediated induction of OCT4 and E-CADHERIN.
iPSCs were lysed using urea-lysis buffer (1 mM EDTA, 0.5% Triton X-100, 5 mM NaF, 6 M Urea, 1 mM Na3VO4, 10 μg/mL Pepstatin, 100 μM PMSF and 3 μg/mL Aprotinin in PBS). Enhanced chemiluminescence (ECL) immunoblot analysis was performed. 40 μg of total protein was resolved on 12% SDS-PAGE gels and immunoblotted with antibodies. […] antibody was used as loading control. Primary antibodies were incubated at 1:1000 dilution in TBS (pH 7.5) with 0.1% Tween-20 and 5% BSA/milk with gentle agitation overnight at 4° C. Secondary antibodies (Dianova, Germany) were incubated in TBS (pH 7.5) with 5% Milk and 0.1% Tween-20 at a 1:10,000 dilution for 1 h at room temperature.
In general terms: A western blot detects proteins with antibodies after separation by electrophoresis.

The next data set deals with Nanog. The experiment in a line: Luciferase reporter assay in NCCIT-Nanog cells. To be noted: 10 μM, 48 h. Type of data set: cell-based, human. The method, then:
It is known in the art that Nanog is a direct target of Oct4 and can be activated by other Oct4 inducing compounds. […] At higher concentrations of O4I3 (FIGS. 1B and 1C) less activity was observed. Moreover, the activity of zolpidem (N,N-Dimethyl-2-(6-methyl-2-p-tolylimidazo[1,2-a]pyridin-3-yl)acetamid) (100) containing a similar backbone to O4I3 was tested in both reporter cell lines. An approximate 2-fold induction at 10 μM was detected (FIG. 8 and FIG. 9).
Luciferase reporter assay was performed using Beatle Juice Kit (PJK, Germany) according to the manufacturer's instruction. NCCIT-Oct and NCCIT-Nanog reporter cells were plated into a 24-well plate (100,000 cells/well) for 24 h. Cells were treated with compounds as indicated and harvested with luciferase lysis buffer (25 mM Tris phosphate buffer pH=7.8, 4 mM EGTA, 1% Triton X-100, 10% glycerol and 2 mM fresh DTT, filtered through 0.45 μm sterile filter) at 37° C. for 15 min. The protein concentration was determined by Bradford assay (Sigma, Germany). 100 μL reaction mixture containing luciferin and ATP was added to 20 μL cell lysis in a white plate (Gibco, Germany), incubated for 5 min and measured by a luminometer plate-reader. The activity was determined as percent luminous intensity of treated cells over control cells from at least five-independent experiments.

A further data set concerns hiPSCs. The experiment in a line: iPSC single cell expansion, viability by MTT assay. It counts as cell-based, human. The conditions noted are these: much higher concentration and lower efficacy than O4I3. As to the method: Since O4I3 induced sustainable expression of Oct4 and Nanog, the inventors questioned if it supports iPSC self-renewal in single cell expansion. Therefore, the viability of iPSCs, after replating Accutase®-dissociated single iPSCs, was tested in the presence or absence of O4I3. Rocki (Y-27632) was used for the first 24 h to increase iPSCs survival. A nearly 300% higher viability in cells treated with O4I3 (1 nM) was observed. Using 50 nM of O4I3 even 400% increase was observed (FIG. 2A). FACS analysis confirmed homologous expression of iPSCs markers, Tra-1-81 and Oct4, for at least 30 passages (FIG. 2B).
iPSC single cell expansion was performed according to a well-established protocol known in the art (Watanabe et al, Nat Biotechnol, 2007, 25(6), 681-6). Briefly, iPSCs were dissociated with Accutase® as single cell suspension and re-seeded in a Geltrex-coated 96-well plate in the presence of Rock inhibitor for the first 24 h in combination with/without O4I3. Cell viability was performed in MTT assay as disclosed elsewhere (Cheng et al, Mol Oncol. 2016 June; 10(6):806-24).
In general terms: Formazan colour is commonly taken as a measure of viable cells.

The subject of another data set is human fibroblasts. The experiment in a line: Episome-based reprogramming of human fibroblasts, AP+ / iPSC-like colonies. Type of data set: cell-based. The conditions noted are these: 1 μM, lower efficiency. As to the method:
O4I3 was applied in commercially available episome-based reprogramming cocktail containing episomal vectors for overexpression of Oct4, Sox2, Klf4, Lin28 and L-Myc, as well as suppression of p53. In comparison to non-treated fibroblast cultures, 20 times more alkaline phosphatase (AP) positive colonies were detected in the presence of O4I3 at a concentration of 50 nM in two tested human primary fibroblasts (HF1 and HF2) (FIG. 13).
It is known in the art that senescence or other unknown factors can confer donor fibroblasts resistance to reprogramming. Therefore, O4I3 was tested for its ability to enable reprogramming of refractory fibroblasts. Two human fibroblasts were selected. HFF-LTR7-EGFP at passage >40 carrying EGFP driven by a LTR7 promoter, which was activated during reprogramming, and HF5, isolated from a patient sample, both of which were resistant to an episome-based reprogramming approach (FIG. 13).
Epi5® Episomal iPSC Reprogramming Kit (Life technologies) was used to reprogram human fibroblasts according to the manufacturer's protocol. Briefly, 5,000-50,000 cells were seeded in a 24-well plate for 24 h and then transfected with episomal vectors in N2 B27 medium. After 14 days, cells were re-suspended with 0.5 mM EDTA and re-plated in a 6-well plate in Essential®8 medium. Colonies were isolated after 3-4 weeks with the help of alkaline phosphatase (AP) live stain (Life technologies). Medium was refreshed daily.

Another data set deals with methylated H3K4. The experiment in a line: In vitro H3K4 methylation assay (Epiquik histone demethylase H3K4 specific kit). The conditions noted are these: micromolar concentrations. It counts as biochemical. The method, then:
(§2) Epiquik histone demethylase (H3K4 specific) activity/inhibition assay kit (Epigentek, Biocat, Germany) was used to measure the protective effect of O4I3 and zolpidem on the methylation of H3K4. Their inhibitory effects on LSD1, KDM5s, and KDM4 were determined using Epigenase jarid demethylase activity/inhibition assay kit, Epigenase JMJD2 demethylase activity/inhibition assay kit and EpiQuik histone demethylase LSD1 activity/inhibition assay kit (Epigentek, Biocat, Germany). The total nuclear extraction was used according to manufacturer's instructions. For measuring KDM5A, KDM5B, KDM5C, and KDM5D activity, magnetic beads were used to immunoprecipitate the respective enzymes from 10^8 cells according to the manufacturer's instructions (Cell Signaling Technologies).

For the next data set, the system named is KDM5. The experiment in a line: KDM5 demethylase inhibition, whole-cell nuclear extraction. It counts as biochemical. The conditions noted are these: micromolar concentrations.
From the text: (§3) HMT and HDM are two major classes of enzymes, contributing to the regulation of histone methylation. Lysine-specific demethylase 1 (LSD1) and histone lysine demethylase 5 (KDM5, also known as JARID1) majorly catalyze demethylation of H3K4. A few KDM5 chemical inhibitors have been reported to inhibit demethylation of H3K4, leading to an increase of global methylated H3K4 in various cell types. The inventors tested the inhibitory effect of O4I3 on LSD1 and KDM5. KDM4 (also known as JMJD2), the HDM of H3K9 and H3K36, was also included.
as §2

A further data set concerns T1, KDM4.
T1 construct: other: whole-cell nuclear extraction; other: micromolar concentrations
The experiment in a line: KDM4 (JMJD2) demethylase inhibition, nuclear extraction. Type of data set: biochemical. To be noted: micromolar concentrations.
From the text: as §3, §2

The test system of data set [5] is Oct4. The experiment in a line: Luciferase reporter assay in NCCIT-Oct4 cells. Type of data set: cell-based, human. The conditions noted are these: 10 μM, 48 h.
Data set [6] in a line: Metabolic analysis of O4I2 incubated with NCCIT cells (HPLC, LC/MS). Type of data set: in vitro ADME, human. To be noted: 24 hours, O4I2 50 μM. As to the method: as §1
NCCIT cells were treated with O4I2 (50 μM) in RPMI 1640 medium containing 2% BSA/FBS. Medium and cells were collected. Cell pellet was solved in 0.1% Triton-x. Protein precipitated by adding MeOH (pH=2) in lysate supernatant on ice for 2 h. Metabolites were extracted from the combined supernatant with ethyl acetate. After removal of organic solvent, residue was dissolved in acetonitrile, frozen immediately in liquid N2 and stored in −80° C. until further analysis.
Samples obtained after purification were diluted to contain 20% MeOH. 100 μL of the sample was transferred to an HPLC vial and placed in the autosampler of an Agilent 1200 series HPLC machine. Sample (20 μL) was injected into the system and metabolites were separated on a C18 column (Kinetex 2.6 μm, C18, 100 Å, dimensions 100×2.1 mm, Phenomenex, Aschaffenburg, Germany). […]

As to `Cc1cccc(Nc2nc(C(C)(C)C)cs2)c1C` [O4I4], the “activity in three luciferase reporter cell lines” value in the data set on OCT4-promoter is “among the most active compounds”. In data set [1], the “expression of NANOG, increase as compared to 0.1% DMSO treatment” value came out at 30 fold and the “expression of OCT4, increase as compared to 0.1% DMSO treatment” value amounted to 3 fold. The “survival ratio under oxidative stress” value in the data set on C. elegans [2] is “increased survival ratio”. The lifespan result in the data set with C. elegans [3] is given as “life extension”. Also, in the data set on daf-16, the “localization of daf-16” value is recorded as “nucleic translocation”. The OCT4 protein entry with Oct4 [4] is given as “dose-dependent increase”.
For `Cc1ccc(-c2nc3ccc(C)cn3c2CC(=O)N(C)C)cc1` [zolpidem, N,N-dimethyl-2-(6-methyl-2-p-tolylimidazo[1,2-a]pyridin-3-yl)acetamid, reference compound], the “induction in NCCIT-Nanog reporter cells” value in the data set with Nanog was about 2 fold. Moreover, the “maintenance of iPSCs” value in the data set on hiPSCs is recorded as “sustained the maintenance of iPSCs”. Further, in the data set with human fibroblasts, the “reprogramming of resistant fibroblasts” value is listed as “facilitated the reprogramming of resistant fibroblasts”. Besides, in the data set on methylated H3K4, the “protection of H3K4 methylation” value is reported as “protected H3K4 methylation”. Further, the “inhibition of KDM5” value in the data set with KDM5 is recorded as “inhibited”. Further, in the data set on KDM4, the “inhibition of KDM4” value is on record as “inhibited”. For the same compound, the “induction in NCCIT-Oct4 reporter cells” value in the data set on Oct4 [5] is about 2 fold.
With `CCOC(=O)c1csc(Nc2ccc(Cl)cc2)n1` [O4I2], in data set [6], the “metabolic conversion in cells” value is “occurrence of ester-to-acid conversion”.
